Measurements published in paper PMC6522510 (Nature Communications, 2019).
Like-named read-outs stand apart in the source and are kept apart here.

Experiments:
CHRF288-11 [1] = assay: Secondary dose-response HTS, Cell Titer Glo; format: cell-based, human
M07e [2] = assay: Secondary dose-response HTS, Cell Titer Glo; format: cell-based, human; conditions: for EC50: Homo sapiens, M-07e, read-out: average effective concentration, M07e
CMK [3] = assay: Secondary dose-response HTS, Cell Titer Glo; format: cell-based, human; conditions: for EC50: Homo sapiens, read-out: average effective concentration, CMK
CMS [4] = assay: Secondary dose-response HTS, Cell Titer Glo; format: cell-based, human; conditions: for EC50: Homo sapiens, HTS, read-out: average effective concentration, CMS
MOLM-13 [5] = assay: Secondary dose-response HTS, Cell Titer Glo; format: cell-based, human; conditions: for EC50: Homo sapiens, read-out: average effective concentration, MOLM-13
MV4-11 [6] = assay: Secondary dose-response HTS, Cell Titer Glo; format: cell-based, human; conditions: for EC50: Homo sapiens, read-out: average effective concentration, MV4-11
U937 [7] = assay: Secondary dose-response HTS, Cell Titer Glo; format: cell-based, human; conditions: for EC50: Homo sapiens, U-937, read-out: average effective concentration, U937
ML-2 = assay: cells; design: species or system AML cell lines (8); conditions: Homo sapiens, ML-2, 72 h, read-out: ML-2
ML2 = assay: Secondary dose-response HTS, Cell Titer Glo; format: cell-based, human; conditions: for EC50: Homo sapiens, read-out: average effective concentration, ML-2
U937 [8] = assay: cells; design: species or system AML cell lines (8); conditions: Homo sapiens, U-937, 72 h, read-out: U937
MOLM-13 [9] = assay: cells; design: species or system AML cell lines (8); Secondary HTS, 10-point dose-response in triplicate, Cell Titer Glo viability, four-parameter fit EC50; conditions: Homo sapiens; 72 h cell viability; read-out: MOLM-13
MV4-11 [10] = assay: cells; design: species or system AML cell lines (8); conditions: Homo sapiens, MV4-11, 72 h, read-out: MV4-11
M07e [11] = assay: cells; design: species or system AML cell lines (8); conditions: M-07e, 72 h, read-out: M07e
CHRF288-11 [12] = assay: cells; design: species or system AML cell lines (8); conditions: 72 h, read-out: CHRF288-11
CMK [13] = assay: cells; design: species or system AML cell lines (8); conditions: Homo sapiens, 72 h, read-out: CMK
CMS [14] = assay: cells; design: species or system AML cell lines (8); conditions: 72 h, read-out: CMS
[15] = test system: FLT3-ITD+ primary AML blast samples
[16] = test system: AMKL primary AML blast samples; assay: Ex vivo drug treatment of primary AML blasts on mesenchymal stromal cells; format: cell-based; conditions: Homo sapiens; primary blasts on MSC, 96 h
[17] = test system: MLLr primary AML blast samples; assay: as above; format: cell-based; conditions: Homo sapiens; primary blasts on MSC, 96 h, range over patient samples
M07e [18] = assay: cells; design: species or system AML cell lines (8); Secondary HTS, 10-point dose-response in triplicate, Cell Titer Glo viability, four-parameter fit EC50; conditions: M-07e, 72 h, read-out: M07e
MV4-11 [19] = assay: cells; design: species or system AML cell lines (8); Secondary HTS, 10-point dose-response in triplicate, Cell Titer Glo viability, four-parameter fit EC50; conditions: Homo sapiens, MV4-11, 72 h, read-out: MV4-11
CMK [20] = assay: cells; design: species or system AML cell lines (8); Secondary HTS, 10-point dose-response in triplicate, Cell Titer Glo viability, four-parameter fit EC50; conditions: Homo sapiens, CMK, 72 h, read-out: CMK
U937 [21] = assay: cells; design: species or system AML cell lines (8); Secondary HTS, 10-point dose-response in triplicate, Cell Titer Glo viability, four-parameter fit EC50; conditions: Homo sapiens, U-937, 72 h, read-out: U937
CMS [22] = assay: cells; design: species or system AML cell lines (8); Secondary HTS, 10-point dose-response in triplicate, Cell Titer Glo viability, four-parameter fit EC50; conditions: 72 h, read-out: CMS
MOLM-13 [23] = assay: cells; design: species or system AML cell lines (8); Secondary HTS, 10-point dose-response in triplicate, Cell Titer Glo viability, four-parameter fit EC50; conditions: Homo sapiens, MOLM-13, 72 h, read-out: MOLM-13
CHRF288-11 [24] = assay: cells; design: species or system AML cell lines (8); Secondary HTS, 10-point dose-response in triplicate, Cell Titer Glo viability, four-parameter fit EC50; conditions: 72 h, read-out: CHRF288-11
[25] = secondary high-throughput screen, […]
[26] = secondary high-throughput screen, CMK
[27] = secondary high-throughput screen, CMS
[28] = secondary high-throughput screen, MOLM-13
[29] = secondary high-throughput screen, MV4-11
[30] = secondary high-throughput screen, U937
[31] = secondary high-throughput screen, ML-2
[32] = secondary high-throughput screen, CHRF288-11
[33] = secondary high-throughput screen, M07e

| SMILES | EC50 (ML-2) [µM] | EC50 (U937 [8]) [µM] | EC50 (MOLM-13 [9]) [µM] | EC50 (MV4-11 [10]) [µM] | EC50 (M07e [11]) [µM] | EC50 (CHRF288-11 [12]) [µM] | EC50 (CMK [13]) [µM] | EC50 (CMS [14]) [µM] | IC50 [15] [nM] | other results |
| --- | --- | --- | --- | --- | --- | --- | --- | --- | --- | --- |
| O=C(O)CCCc1ccc(N(CCCl)CCCl)cc1 [CHLORAMBUCIL] | > 10 | – | – | – | – | – | – | – | – | EC50 (CHRF288-11 [1]; Homo sapiens, HTS, secondary high-throughput screen, CHRF288-11, read-out: average effective concentration, CHRF288-11): 4.9 µM; EC50 (M07e [2]; [25]): 6.9 µM; EC50 (CMK [3]; [26]): 5.9 µM; EC50 (CMS [4]; [27]): 7 µM; EC50 (MOLM-13 [5]; [28]): 10 µM; EC50 (MV4-11 [6]; [29]): 8400 nM; EC50 (U937 [7]; [30]): 6.1 µM; average effective concentration, ML-2 (ML2; [31]): Inactive |
| O=P1(N(CCCl)CCCl)NCCCO1 (centres unmarked) [CYCLOPHOSPHAMIDE] | > 10 | > 10 | > 10 | > 10 | > 10 | > 10 | > 10 | > 10 | – | average effective concentration, CHRF288-11 (CHRF288-11 [1]): Inactive; average effective concentration, M07e (M07e [2]): Inactive; average effective concentration, CMK (CMK [3]): Inactive; average effective concentration, CMS (CMS [4]): Inactive; average effective concentration, MOLM-13 (MOLM-13 [5]): Inactive; average effective concentration, MV4-11 (MV4-11 [6]): Inactive; average effective concentration, U937 (U937 [7]): Inactive; average effective concentration, ML-2 (ML2): Inactive |
| CO[C@H]1C[C@@H]2CC[C@@H](C)[C@@](O)(O2)C(=O)C(=O)N2CCCC[C@H]2C(=O)O[C@H]([C@H](C)C[C@@H]2CC[C@@H](OCCO)[C@H](OC)C2)CC(=O)[C@H](C)/C=C(\C)[C@@H](O)[C@@H](OC)C(=O)[C@H](C)C[C@H](C)/C=C/C=C/C=C/1C [EVEROLIMUS] | > 10 | > 10 | > 10 | > 10 | > 10 | > 10 | > 10 | > 10 | – | – |
| Cc1c(CN2CCN(C(=O)[C@H](C)O)CC2)sc2c(N3CCOCC3)nc(-c3cnc(N)nc3)nc12 [GDC-0980] | > 10 | > 10 | > 10 | > 10 | > 10 | > 10 | – | > 10 | – | EC50 (CMK [3]; [26]): 0.52 µM |
| O=P1(NCCCl)OCCCN1CCCl (centres unmarked) [IFOSFAMIDE] | > 10 | > 10 | > 10 | > 10 | > 10 | > 10 | > 10 | > 10 | – | – |
| Cc1oncc1C(=O)Nc1ccc(C(F)(F)F)cc1 [LEFLUNOMIDE] | > 10 | > 10 | > 10 | > 10 | > 10 | > 10 | > 10 | > 10 | – | – |
| COC1=CC(=O)O[C@@H](/C=C/c2ccc3c(c2)OCO3)C1 [METHYSTICIN] | > 10 | > 10 | > 10 | > 10 | > 10 | > 10 | > 10 | > 10 | – | average effective concentration, CHRF288-11 (CHRF288-11 [1]; [32]): Inactive; average effective concentration, M07e (M07e [2]; [25]): Inactive; average effective concentration, CMK (CMK [3]; [26]): Inactive; average effective concentration, CMS (CMS [4]; [27]): Inactive; average effective concentration, MOLM-13 (MOLM-13 [5]; [28]): Inactive; average effective concentration, MV4-11 (MV4-11 [6]; [29]): Inactive; average effective concentration, U937 (U937 [7]; [30]): Inactive; average effective concentration, ML-2 (ML2; [31]): Inactive |
| CCc1ccc(CCOc2ccc(CC3SC(=O)NC3=O)cc2)nc1 (centres unmarked) [PIOGLITAZONE] | > 10 | > 10 | > 10 | > 10 | > 10 | > 10 | > 10 | > 10 | – | – |
| CC(=O)c1c(C)c2cnc(Nc3ccc(N4CCNCC4)cn3)nc2n(C2CCCC2)c1=O [Palbociclib, reference compound] | – | – | – | – | – | – | – | – | 979 to 5260 | EC50 (CMK [3]; [26]): 3.5 µM; EC50 (CMS [4]; [27]): 9.1 µM; IC50 [16]: 5.17 µM; IC50 [17]: 1110 to 4000 nM; EC50 (U937 [7]; [30]): 10 µM |
| CCOc1cc(C(C)(C)C)ccc1C1=N[C@@](C)(c2ccc(Cl)cc2)[C@@](C)(c2ccc(Cl)cc2)N1C(=O)N1CCN(CCCS(C)(=O)=O)CC1 [RG7112, reference compound] | – | – | – | – | – | – | – | – | 77 to 952 | EC50 (M07e [2]; [33]): > 10 µM; EC50 (MOLM-13 [5]; [28]): 0.29 µM; EC50 (MV4-11 [6]; [29]): 2500 nM; IC50 [17]: 149 to 845 nM; EC50 (ML2; [31]): 6.8 µM |
| NC(=O)c1ncn([C@@H]2O[C@H](CO)[C@@H](O)[C@H]2O)n1 [RIBAVIRIN] | > 10 | > 10 | > 10 | > 10 | – | > 10 | > 10 | > 10 | – | EC50 (M07e [2]; [33]): 9.3 µM |
| Cn1c(COP(=O)(NCCBr)NCCBr)cnc1[N+](=O)[O-] [TH-302] | > 10 | > 10 | > 10 | > 10 | > 10 | > 10 | > 10 | > 10 | – | average effective concentration, CHRF288-11 (CHRF288-11 [1]; [32]): Inactive; average effective concentration, M07e (M07e [2]; [25]): Inactive; average effective concentration, CMK (CMK [3]; [26]): Inactive; average effective concentration, CMS (CMS [4]; [27]): Inactive; average effective concentration, MOLM-13 (MOLM-13 [5]; [28]): Inactive; average effective concentration, MV4-11 (MV4-11 [6]; [29]): Inactive; average effective concentration, U937 (U937 [7]; [30]): Inactive; average effective concentration, ML-2 (ML2; [31]): Inactive |
| Cn1ncnc1[C@H]1c2n[nH]c(=O)c3cc(F)cc(c23)N[C@@H]1c1ccc(F)cc1 [Talazoparib] | – | – | – | – | – | – | – | – | 1980 to 2460 | – |
| CC(=O)Nc1cccc(-n2c(=O)n(C3CC3)c(=O)c3c(Nc4ccc(I)cc4F)n(C)c(=O)c(C)c32)c1 [Trametinib] | – | – | – | – | – | – | – | – | 130 to 5310 | EC50 (M07e [18]): > 10 µM; EC50 (MV4-11 [19]): > 10 µM; IC50 [17]: 1.6 to 1470 nM; EC50 (CMK [20]): > 10 µM; EC50 (U937 [21]): > 10 µM; EC50 (CMS [22]): > 10 µM; EC50 (ML2; [31]): 0.001 µM; EC50 (MOLM-13 [23]): > 10 µM; EC50 (CHRF288-11 [24]): > 10 µM |
| CC1(C)CCC(CN2CCN(c3ccc(C(=O)NS(=O)(=O)c4ccc(NCC5CCOCC5)c([N+](=O)[O-])c4)c(Oc4cnc5[nH]ccc5c4)c3)CC2)=C(c2ccc(Cl)cc2)C1 [Venetoclax, reference compound] | – | – | – | – | – | – | – | – | 3.2 to 16 | average effective concentration, CHRF288-11 (CHRF288-11 [1]; [32]): Inactive; average effective concentration, M07e (M07e [2]; [33]): Inactive; average effective concentration, CMK (CMK [3]; [26]): Inactive; EC50 (CMS [4]): > 10 µM; EC50 (MOLM-13 [5]; [28]): > 10 µM; EC50 (MV4-11 [6]; [29]): 1 nM; IC50 [17]: 46 to 1050 nM; average effective concentration, U937 (U937 [7]; [30]): Inactive; average effective concentration, ML-2 (ML2; [31]): Inactive |
| O=C(CCCCCCC(=O)Nc1ccccc1)NO [Vorinostat, reference compound] | – | – | – | – | – | – | – | – | 304 to 2890 | EC50 (MV4-11 [6]; [29]): 790 nM |
